Measurements as given in patent US20230065953A1, “NOVEL HETEROARYL-TRIAZOLE COMPOUNDS AS PESTICIDES” (Bayer Aktiengesellschaft, priority 2019, published 2023).

Assays:
Type in all cases: in vivo
[1] = test system: green peach aphid (Myzus persicae); assay: Myzus persicae spray test; settings: foliar, 120 h, Chinese cabbage leaf disks, after 5 days
Experimental: Myzus persicae—Spray Test • Solvent: 78.0 parts by weight acetone • 1.5 parts by weight dimethylformamide • Emulsifier: alkylarylpolyglycol ether
(§1) To produce a suitable preparation of active compound, 1 part by weight of active compound is mixed with the stated amount of solvents and is diluted with water, containing an emulsifier concentration of 1000 ppm, to the desired concentration. Further test concentrations are prepared by dilution with emulsifier containing water.
Chinese cabbage (Brassica pekinensis) leaf disks infected with all instars of the green peach aphid (Myzus persicae), are sprayed with a preparation of the active ingredient of the desired concentration.
After 5 days mortality in % is determined. 100% means all aphids have been killed and 0% means none of the aphids have been killed.

[2] = test system: larvae of the southern green stink bug (Nezara viridula); assay: Nezara viridula spray test; settings: in Hordeum vulgare, 96 h
Experimental: Nezara viridula—Spray Test • Solvent: 78.0 parts by weight of acetone • 1.5 parts by weight of dimethylformamide • Emulsifier: alkylarylpolyglycol ether
To produce a suitable preparation of active compound, 1 part by weight of active compound is mixed with the stated amount of solvent, and the concentrate is diluted with water, containing an emulsifier concentration of 1000 ppm, to the desired concentration. Further test concentrations are prepared by dilution with emulsifier containing water.
Barley plants (Hordeum vulgare) are sprayed with a test solution containing the desired concentration of the active ingredient and are infested with larvae of the southern green stink bug (Nezara viridula).
After 4 days mortality in % is determined. 100% means all the stink bugs have been killed; 0% means none of the stink bugs have been killed.

[3] = test system: fall armyworm larvae (Spodoptera frugiperda); assay: Spodoptera frugiperda spray test (maize leaf sections); settings: 168 h
Experimental: Spodoptera frugiperda—Spray Test • Solvent: 78.0 parts by weight acetone • 1.5 parts by weight dimethylformamide • Emulsifier: alkylarylpolyglycol ether
as §1
Maize (Zea mays) leaf sections are sprayed with a preparation of the active ingredient of the desired concentration. Once dry, the leaf sections are infested with fall armyworm larvae (Spodoptera frugiperda).
After 7 days mortality in % is determined. 100% means all caterpillars have been killed and 0% means none of the caterpillars have been killed.

[4] = test system: Rhipicephalus microplus larvae (strain Parkhurst, resistant against synthetic pyrethroids); assay: Rhipicephalus (Boophilus) microplus in-vitro contact test, larval cattle tick; settings: 5 μg/cm^2 (=500 g/ha), after 48 hours, read-out: efficacy (larvae dead or moribund)
Experimental: Rhipicephalus (Boophilus) Microplus—In-Vitro Contact Tests Larval Cattle Tick (Strain Parkhurst, Resistant Against Synthetic Pyrethroids)
9 mg compound is solved in 1 mL acetone and diluted with acetone to the desired concentration. 250 μL of the test solution is filled in 25 mL glass test tubes and homogeneously distributed on the inner walls by rotation and tilting on a shaking device (2 h at 30 rpm). With a compound concentration of 900 ppm, an inner surface of 44.7 cm^2 and a homogeneous distribution, a dose of 5 μg/cm^2 is achieved.
After the solvent has evaporated, each test tube is filled with 20-50 cattle tick larvae (Rhipicephalus microplus), closed with a perforated lid and incubated in a horizontal position at 85% relative humidity and 27° C. in an incubator. After 48 hours efficacy is determined. The larvae are patted on the ground of the tubes and negative geotactic behavior is recorded.
An efficacy of 100% means all larvae are dead or moribund; 0% means no larvae are dead or moribund.

[5] = test system: larvae of the banded cucumber beetle (Diabrotica balteata); assay: Diabrotica balteata spray test; settings: 168 h, 100 g/ha (=32 μg/well), wheat seeds, after 7 days, read-out: efficacy (seedling growth)
Experimental: Diabrotica Balteata—Spray Test
• Solvent: 78.0 parts by weight of acetone • 1.5 parts by weight of dimethylformamide • Emulsifier: alkylarylpolyglycol ether
Further test concentrations are prepared by dilution with emulsifier containing water.
Soaked wheat seeds (Triticum aestivum) are placed in a multiple well plate filled with agar and some water and are incubated for 1 day to germinate (5 seeds per well). The germinated wheat seeds are sprayed with a test solution containing the desired concentration of the active ingredient. Afterwards each unit is infected with 10-20 larvae of the banded cucumber beetle (Diabrotica balteata).
After 7 days efficacy in % is determined.

SMILES | mortality at 100 g/ha [1] | mortality at 100 g/ha [2] | mortality at 500 g/ha [2] | mortality at 100 g/ha [3] | pest or weed control at 5 µg/cm2 [4] | pest or weed control at 32 µg/disc, 100 g/ha [5]
C[C@H](NC(=O)c1cc(OC(F)F)cc(S(=O)(=O)C2CC2)c1)c1ncnn1-c1ncc(C#N)s1 [I-50] | 90% | 90% | 100% | 100% |  | 
C[C@H](NC(=O)c1cc(C(F)F)cc(S(=O)(=O)C2CC2)c1)c1ncnn1-c1ncc(C#N)s1 [I-51] | 90% | 100% | 100% | 100% |  | 
C[C@H](NC(=O)c1cc(OC(F)F)cc(S(C)(=O)=O)c1)c1ncnn1-c1ncc(C#N)s1 [I-54, N-{(1S)-1-[1-(5-cyano-1,3-thiazol-2-yl)-1H-1,2,4-triazol-5-yl]ethyl}-3-(difluoromethoxy)-5-(methylsulfonyl)benzamide] |  |  | 100% | 100% |  | 
Cc1nc([C@H](C)NC(=O)c2cc(Cl)nc(C(F)(F)F)c2)n(-c2ncc(C(=O)N(C)C)s2)n1 [I-77] |  |  |  | 100% | 100% | 100%
Cc1nc([C@H](C)NC(=O)c2cc(Cl)nc(C(F)(F)F)c2)n(-c2ncc(C(=O)N(C)CC#N)s2)n1 [I-80] |  |  |  | 100% | 100% | 100%
C[C@H](NC(=O)c1cc(Cl)cc(C(F)(F)Br)c1)c1ncnn1-c1ncc(C#N)s1 [I-86] | 100% |  |  | 100% |  | 100%
C[C@H](NC(=O)c1cc(C2CC2)cc(C(C)(F)F)c1)c1ncnn1-c1ncc(C#N)s1 [I-95] | 100% |  |  | 100% |  | 100%
C[C@H](NC(=O)c1cc(OC(F)(F)F)cc(S(=O)(=O)C2CC2)c1)c1nc(C2CC2)nn1-c1ncc(C#N)s1 [I-104] |  |  | 90% | 100% |  | 100%
CNC(=O)c1cnc(-n2ncnc2[C@H](C)NC(=O)c2cc(Br)cc(OC(F)(F)F)c2)s1 [I-111] |  |  | 100% | 100% |  | 100%
C[C@H](NC(=O)c1cc(Br)cc(OC(F)F)c1)c1ncnn1-c1ncc(C(=O)N(C)C)s1 [I-115] |  |  | 90% | 100% |  | 100%
C[C@H](NC(=O)c1cc(C(F)F)cc(C(F)F)c1)c1ncnn1-c1ncc(C(=O)N(C)C)s1 [I-117] |  | 100% | 100% |  |  | 
C[C@H](NC(=O)c1cc(Cl)cc(S(=O)(=O)C(F)F)c1)c1ncnn1-c1ncc(C(=O)N(C)C)s1 [I-121] |  |  | 100% |  |  | 100%
C[C@H](NC(=O)c1cc(C(F)F)cc(S(=O)(=O)C2CC2)c1)c1nc(C2CC2)nn1-c1ncc(C#N)s1 [I-123] |  |  | 100% | 100% |  | 100%
C[C@H](NC(=O)c1cc(Cl)cc(S(=O)(=O)C(F)F)c1)c1ncnn1-c1ncc(C#N)s1 [I-134] |  |  | 100% | 100% |  | 100%
C[C@H](NC(=O)c1cc(OC(F)F)cc(S(=O)(=O)C(F)F)c1)c1ncnn1-c1ncc(C#N)s1 [I-136] |  | 100% | 100% | 100% |  | 100%
C[C@H](NC(=O)c1cc(OC(F)F)cc(OC(F)F)c1)c1ncnn1-c1ncc(C(=O)N(C)C2CC2)s1 [I-148] | 90% |  |  | 100% |  | 100%
C[C@H](NC(=O)c1cc(OC(F)(F)F)cc(C2CC2)c1)c1ncnn1-c1ncc(C(=O)N(C)C2CC2)s1 [I-152] | 90% |  |  | 100% |  | 100%
C[C@H](NC(=O)c1cc(Br)cc(OC(F)F)c1)c1ncnn1-c1ncc(C(=O)N(C)C2CC2)s1 [I-154] | 90% |  |  | 100% |  | 100%
C[C@H](NC(=O)c1cc(Cl)cc(OC(F)(F)F)c1)c1ncnn1-c1ncc(C(=O)N(C)C2CC2)s1 [I-155] | 90% |  |  | 100% |  | 100%
Cc1nc([C@H](C)NC(=O)c2cc(Cl)cc(S(=O)(=O)C(F)F)c2)n(-c2ncc(C#N)s2)n1 [I-158] |  |  | 90% | 100% |  | 100%
Cc1nc([C@H](C)NC(=O)c2cc(OC(F)(F)F)cc(S(=O)(=O)C(F)F)c2)n(-c2ncc(C#N)s2)n1 [I-161] | 100% |  |  | 100% |  | 100%
Cc1nc([C@H](C)NC(=O)c2cc(OC(F)(F)F)cc(S(=O)(=O)C3CC3)c2)n(-c2ncc(C#N)s2)n1 [I-164] |  |  |  | 100% |  | 100%
C[C@H](NC(=O)c1cc(C(F)(F)F)cc(Cl)n1)c1ncnn1-c1ncc(C#N)s1 [I-166] |  |  | 100% | 100% |  | 100%
C[C@H](NC(=O)c1cc(Cl)cc(Cl)n1)c1ncnn1-c1ncc(C#N)s1 [I-167] |  |  | 100% |  |  | 100%
C[C@H](NC(=O)c1cc(Cl)nc(C(F)(F)F)c1)c1ncnn1-c1ncc(C#N)s1 [I-168] |  |  | 100% | 100% |  | 100%
C[C@H](NC(=O)c1cc(OC(F)(F)F)cc(C2(C#N)CC2)c1)c1nc(C2CC2)nn1-c1ncc(C#N)s1 [I-169] |  |  | 100% | 100% |  | 100%
CNC(=O)c1cnc(-n2ncnc2[C@H](C)NC(=O)c2cc(OC(F)(F)F)cc(S(=O)(=O)C(F)F)c2)s1 [I-170] |  |  | 100% | 100% |  | 100%
CNC(=O)c1cnc(-n2nc(C3CC3)nc2[C@H](C)NC(=O)c2cc(OC(F)(F)F)cc(C3CC3)c2)s1 [I-173] |  |  | 100% |  |  | 100%
C[C@H](NC(=O)c1cncc(OC(F)(F)F)c1)c1ncnn1-c1ncc(C#N)s1 [I-174] |  |  | 100% |  |  | 
Cc1nc([C@H](C)NC(=O)c2cncc(OC(F)(F)F)c2)n(-c2ncc(C#N)s2)n1 [I-175] |  |  | 100% |  |  | 
